In patent publication US12240854B2, “TRAF 6 inhibitors” (Helmholtz Zentrum München - Deutsches Forschungszentrum für …, priority 2018, dated 2025):
“Also recorded” adds a separate entry of the source. Where two headings read alike, the source gives them in different places.

What was measured:
[1] = target: T1, TRAF6WTStrepII-Ubc13FH interaction (Homo sapiens, UniProt Q9Y4K3); assay: ALPHAScreen TRAF6-Ubc13 interaction assay; assay type: binding
T1 construct: RING-Zincfinger1 (RZ1) domain (residues 50-159) of human TRAF6 wildtype; made in house; host or cells: E. coli BL21 codon plus RIPL
T1 sequence (Q9Y4K3 with tags, fused parts or gaps): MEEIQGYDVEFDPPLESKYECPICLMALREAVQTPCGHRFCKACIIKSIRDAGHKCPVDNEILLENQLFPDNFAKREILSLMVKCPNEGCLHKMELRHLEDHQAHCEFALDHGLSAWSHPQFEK
Excerpt: In order to identify small molecules that specifically target the RZ1 domain of TRAF6 and thereby prevent its binding to Ubc13, the ALPHAScreen technology (PerkinElmer) was chosen to detect TRAF6WTStrepII-Ubc13FH interaction in High-Throughput-Screenings as well as Structure Activity Relationship (SAR) analysis.
For performance of an automated ALPHAScreen assay, all following components were pre-diluted in ALPHAScreen buffer (1×PBS, 0.5% BSA, 0.01% Tween-20). First, the TRAF6 protein (end concentration 100 nM, 30 μL volume) was added to 384-well-opti-plates involving the MultiFlo dispensing system (BioTek) followed by transfer of the compounds via the Sciclone G3 transfer station (PerkinElmer). After addition of Ubc13FH (end concentration 75 nM, 10 μL volume) with the MultiFlo system and incubation for one hour at room temperature, both beads (Strep-Tactin Alpha Donor beads and Nickel-Chelate acceptor beads; end concentrations 4 μg each, 10 μL volume each) were mixed and added using the MultiFlo system in subdued light. Read-out of the plates occurred after another hour of incubation at room temperature. Statistical parameters including the coefficient of variation, Z′ factor and signal window were calculated to determine the quality of the HTS campaign. To evaluate the efficacy of the compounds, ALPHAScreen units of compound-treated samples were referred to DMSO control treated samples. Thereby, the TRAF6D57K mutant served as the control for minimum signal and was included on every plate of the screening. Compounds that inhibited TRAF6WTStrepII-Ubc13FH by more than 25% were considered as actives. After elimination of ALPHAScreen frequent hitter compounds and His-tag frequent hitters (Schorpp, K., I. Rothenaigner, E. Salmina, et al., Identification of Small-Molecule Frequent Hitters from AlphaScreen High-Throughput Screens. J Biomol Screen, 2014. 19(5): p. 715-26), 178 compounds were defined as primary hits and were subsequently tested in five-point serial dilution assays (2.5-40 μM) in TRAF6WTStrepII-Ubc13FH ALPHAScreen experiments. Only compounds with dose-dependent effects on TRAF6WTStrepII-Ubc13FH (n=27) were taken for further research. For analog testing, all compounds were analyzed in ten-point titration (0.2-100 μM) in TRAF6WTStrepII-Ubc13FH ALPHAScreen experiments. In parallel, the compounds were tested in the ALPHAScreen TruHits Kit (PerkinElmer) to rule out unspecific interference with the ALPHAScreen technology.

[2] = target: T2, TRAF6-Ubc13 binding in HEK293T cells (Homo sapiens, UniProt Q9Y4K3); assay: Co-immunoprecipitation of HA-TRAF6 and Ubc13 in HEK 293T cells; assay type: cell-based
T2 construct: RING-Zincfinger1 (RZ1) domain (residues 50-159) of human TRAF6 wildtype; expressed in transfected cells; host or cells: HEK 293T
T2 sequence (Q9Y4K3 50-159): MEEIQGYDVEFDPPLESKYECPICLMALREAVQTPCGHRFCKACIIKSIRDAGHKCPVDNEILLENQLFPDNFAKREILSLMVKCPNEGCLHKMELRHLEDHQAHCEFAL
Protocol: To study the interaction of TRAF6 and Ubc13 in cells, 1×10^6 293T cells were seeded and after 18 hours cells were transfected with 1 μg pEF-HA empty or pEF-HA-TRAF6 RZ1 plasmid using the X-tremeGENE HP DNA transfection reagent (Roche). 6 hours upon transfection, cells were treated with compound or DMSO. After 42 hours further incubation, cells were harvested in Co-IP lysis buffer and HA-TRAF6 was immunoprecipitated with anti-HA affinity matrix (Roche). Binding of Ubc13 to TRAF6 was examined in Western Blot analysis.

inhibition of TRAF6-Ubc13 interaction in ALPHAScreen (in words) [1]	Structure (SMILES)	interaction of endogenous Ubc13 with HA-tagged TRAF6 (co-immunoprecipitation) [2]	interaction of endogenous Ubc13 with HA-tagged TRAF6 (co-immunoprecipitation) ([2]; listed as HZM06-04)	interaction of endogenous Ubc13 with HA-tagged TRAF6 (co-immunoprecipitation) ([2]; listed as HZM06-08)	interaction of endogenous Ubc13 with HA-tagged TRAF6 (co-immunoprecipitation) ([2]; listed as HZM06-09)
most prominent effect	Cc1nn(-c2ccc3nnc(C)n3n2)c(C)c1CCC(=O)N1CCC(Cc2ccccc2)C1 (centres unmarked) [HZM06-4, 1-(3-benzylpyrrolidin-1-yl)-3-(3,5-dimethyl-1-(3-methyl-[1,2,4]triazolo[4,3-b]pyridazin-6-yl)-1H-pyrazol-4-yl)propan-1-one]	also active in cells; also recorded: most active analogs	demonstrated inhibition of TRAF6-Ubc13 binding	–	–
–	COc1cccc(CC2CCN(C(=O)CCc3c(C)nn(-c4ccc5nnc(C)n5n4)c3C)CC2)c1 [HZM06-8, 1-(4-(3-methoxybenzyl)piperidin-1-yl)-3-(3,5-dimethyl-1-(3-methyl-[1,2,4]triazolo[4,3-b]pyridazin-6-yl)-1H-pyrazol-4-yl)propan-1-one]	also active in cells; also recorded: most active analogs	–	demonstrated inhibition of TRAF6-Ubc13 binding	–
–	Cc1nn(-c2ccc3nnc(C)n3n2)c(C)c1CCC(=O)N1CCC(Cc2ccc(F)cc2)CC1 [HZM06-9, 1-(4-(4-fluorobenzyl)piperidin-1-yl)-3-(3,5-dimethyl-1-(3-methyl-[1,2,4]triazolo[4,3-b]pyridazin-6-yl)-1H-pyrazol-4-yl)propan-1-one]	also active in cells; also recorded: most active analogs	–	–	demonstrated inhibition of TRAF6-Ubc13 binding
–	Cc1nn(-c2ccc3nnc(C)n3n2)c(C)c1CCC(=O)N1CCC(Cc2ccccn2)CC1 [HZM06-10, 3-(3,5-dimethyl-1-(3-methyl-[1,2,4]triazolo[4,3-b]pyridazin-6-yl)-1H-pyrazol-4-yl)-1-(4-((pyridin-2-yl)methyl)piperidin-1-yl)propan-1-one]	also active in cells	–	–	–
